Assay results reported in patent US8980830B2 (priority 2007, dated 2015).
Read-outs that look alike come from different tables or passages of the source. Bridge positions count the residues as written; N and C are the ends. Square brackets hold non-standard residues; d marks the D form. Peptide text beside a SMILES is read from it. * marks the point of attachment. ξ: configuration not given here. X1 = CC(C)CCC[C@@H](C)[C@H]1CC[C@H]2[C@@H]3CC=C4C[C@@H](OC(=O)CCOCCOCCOCCOCCOCCOCCOCCOCCOCCOCCOCCOCCNC(=O)CSCCC(=O)*)CC[C@]4(C)[C@H]3CC[C@]12C; PhLac = O=C(O)[C@@H](O)Cc1ccccc1; ξPhLac = O=C(O)C(O)Cc1ccccc1

Experiments:
GLP-1 Receptor = GLP-1 Receptor (Homo sapiens, UniProt P43220); experiment: Functional assay, cAMP induction (luciferase reporter, HEK293) at GLP-1 receptor; assay type: cell-based
Glucagon Receptor = Glucagon Receptor (Homo sapiens, UniProt P47871); experiment: cAMP inhibition: antagonism of glucagon-induced cAMP at glucagon receptor; assay type: cell-based; parameters: expressed in transfected cells; host or cells: HEK293
[1] = GLP-1 (nM), Table 13, GLP-1 agonist activity
[2] = Table 13, glucagon antagonist activity, read-out: Glu
[3] = GLP-1 agonism EC50 (nM), Table 16

Sequence of GLP-1 Receptor (P43220 24-463): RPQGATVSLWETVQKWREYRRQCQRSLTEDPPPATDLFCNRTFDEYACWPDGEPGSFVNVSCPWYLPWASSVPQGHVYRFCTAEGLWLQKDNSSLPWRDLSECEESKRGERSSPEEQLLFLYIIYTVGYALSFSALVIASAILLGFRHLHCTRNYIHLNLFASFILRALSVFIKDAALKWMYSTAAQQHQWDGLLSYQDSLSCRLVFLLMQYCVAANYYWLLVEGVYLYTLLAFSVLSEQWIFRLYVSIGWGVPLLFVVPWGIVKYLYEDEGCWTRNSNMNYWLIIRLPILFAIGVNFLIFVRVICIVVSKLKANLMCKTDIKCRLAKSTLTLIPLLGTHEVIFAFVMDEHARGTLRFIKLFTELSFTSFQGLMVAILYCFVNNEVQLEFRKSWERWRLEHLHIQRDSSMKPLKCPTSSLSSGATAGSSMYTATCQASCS
Sequence of Glucagon Receptor (P47871 26-477): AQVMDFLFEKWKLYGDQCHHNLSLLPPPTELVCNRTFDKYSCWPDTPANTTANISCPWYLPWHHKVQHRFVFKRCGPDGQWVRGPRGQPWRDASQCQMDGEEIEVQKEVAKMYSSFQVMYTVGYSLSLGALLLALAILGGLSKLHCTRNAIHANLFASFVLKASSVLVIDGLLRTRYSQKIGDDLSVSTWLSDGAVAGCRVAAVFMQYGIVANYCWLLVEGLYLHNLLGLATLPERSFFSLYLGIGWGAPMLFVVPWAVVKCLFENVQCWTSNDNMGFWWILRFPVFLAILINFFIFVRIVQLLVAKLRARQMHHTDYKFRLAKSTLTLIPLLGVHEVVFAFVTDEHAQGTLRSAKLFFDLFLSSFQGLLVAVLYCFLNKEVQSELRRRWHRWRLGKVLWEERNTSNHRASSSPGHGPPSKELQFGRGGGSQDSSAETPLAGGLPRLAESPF

Structure (SMILES): CSCC[C@H](NC(=O)[C@H](CC(C)C)NC(=O)[C@H](Cc1c[nH]c2ccccc12)NC(=O)[C@H](CCC(N)=O)NC(=O)[C@@H](NC(=O)[C@H](Cc1ccccc1)NC(=O)[C@H](CC(=O)O)NC(=O)[C@H](CCC(N)=O)NC(=O)[C@H](C)NC(=O)[C@H](CCCNC(=N)N)NC(=O)[C@H](CCCNC(=N)N)NC(=O)[C@@H]1CCC(=O)NCCCC[C@H](NC(=O)[C@H](CO)NC(=O)[C@H](Cc2ccc(O)cc2)NC(=O)[C@H](CC(=O)O)NC(=O)[C@H](CO)NC(=O)[C@@H](NC(=O)[C@@H](N)Cc2ccccc2)[C@@H](C)O)C(=O)N[C@@H](Cc2ccc(O)cc2)C(=O)N[C@@H](CC(C)C)C(=O)N[C@@H](CC(=O)O)C(=O)N1)C(C)C)C(=O)N[C@@H](CC(N)=O)C(=O)N[C@H](C(=O)NCC(=O)N1CCC[C@H]1C(=O)N[C@@H](CO)C(=O)N[C@@H](CO)C(=O)NCC(=O)N[C@@H](C)C(=O)N1CCC[C@H]1C(=O)N1CCC[C@H]1C(=O)N1CCC[C@H]1C(=O)N[C@@H](CO)C(N)=O)[C@@H](C)O [D9, K12E16(Lactam)] (H-FTSDYSKYLDERRAQDFVQWLMNTGPSSGAPPPS-NH2; lactam 7-11; N-terminus assumed)
- EC50 (GLP-1 Receptor; [1]): 119 nM
- EC50 (GLP-1 Receptor; GLP-1 EC50 (nM), Table 15): 18 nM
- IC50 (Glucagon Receptor; [2]): 828 nM

Structure (SMILES): CSCC[C@H](NC(=O)[C@H](CC(C)C)NC(=O)[C@H](Cc1c[nH]c2ccccc12)NC(=O)[C@H](CCC(N)=O)NC(=O)[C@@H](NC(=O)[C@H](Cc1ccccc1)NC(=O)[C@H](CC(=O)O)NC(=O)[C@@H]1CCCCNC(=O)CC[C@H](NC(=O)[C@H](CC(=O)O)NC(=O)[C@H](CC(C)C)NC(=O)[C@H](Cc2ccc(O)cc2)NC(=O)[C@H](CCCCN)NC(=O)[C@H](CO)NC(=O)[C@H](Cc2ccc(O)cc2)NC(=O)[C@H](CCC(=O)O)NC(=O)[C@H](CO)NC(=O)[C@@H](NC(=O)[C@@H](N)Cc2ccccc2)[C@@H](C)O)C(=O)N[C@@H](CCCNC(=N)N)C(=O)N[C@@H](CCCNC(=N)N)C(=O)N[C@@H](C)C(=O)N1)C(C)C)C(=O)N[C@@H](CC(N)=O)C(=O)N[C@H](C(=O)NCC(=O)N1CCC[C@H]1C(=O)N[C@@H](CO)C(=O)N[C@@H](CO)C(=O)NCC(=O)N[C@@H](C)C(=O)N1CCC[C@H]1C(=O)N1CCC[C@H]1C(=O)N1CCC[C@H]1C(=O)N[C@@H](CO)C(N)=O)[C@@H](C)O [E9, E16K20(lactam)]
- EC50 (GLP-1 Receptor; [3]): 36.4 ± 3.5 nM
- IC50 (Glucagon Receptor; Glucagon antagonism IC50 (nM, inhibit 0.2-0.8 nM glucagon), Table 16, combined results of three assays): 42 ± 3.6 nM

Structure (SMILES): CSCC[C@H](NC(=O)[C@H](CC(C)C)NC(=O)[C@H](Cc1c[nH]c2ccccc12)NC(=O)[C@H](CCC(N)=O)NC(=O)[C@@H](NC(=O)[C@H](Cc1ccccc1)NC(=O)[C@H](CC(=O)O)NC(=O)[C@H](CCC(N)=O)NC(=O)[C@H](C)NC(=O)[C@H](CCCNC(=N)N)NC(=O)[C@H](CCCNC(=N)N)NC(=O)[C@@H]1CCC(=O)NCCCC[C@H](NC(=O)[C@H](CO)NC(=O)[C@H](Cc2ccc(O)cc2)NC(=O)[C@H](CCC(=O)O)NC(=O)[C@H](CO)NC(=O)[C@@H](NC(=O)[C@@H](N)Cc2ccccc2)[C@@H](C)O)C(=O)N[C@@H](Cc2ccc(O)cc2)C(=O)N[C@@H](CC(C)C)C(=O)N[C@@H](CC(=O)O)C(=O)N1)C(C)C)C(=O)N[C@@H](CC(N)=O)C(=O)N[C@H](C(=O)NCC(=O)N1CCC[C@H]1C(=O)N[C@@H](CO)C(=O)N[C@@H](CO)C(=O)NCC(=O)N[C@@H](C)C(=O)N1CCC[C@H]1C(=O)N1CCC[C@H]1C(=O)N1CCC[C@H]1C(=O)N[C@@H](CO)C(N)=O)[C@@H](C)O [E9, K12E16(lactam)] (H-FTSEYSKYLDERRAQDFVQWLMNTGPSSGAPPPS-NH2; lactam 7-11; N-terminus assumed)
- EC50 (GLP-1 Receptor; [1]): 63 nM
- IC50 (Glucagon Receptor; [2]): 2010 nM

Structure (SMILES): CSCC[C@H](NC(=O)[C@H](CC(C)C)NC(=O)[C@H](Cc1c[nH]c2ccccc12)NC(=O)[C@H](CCC(N)=O)NC(=O)[C@@H](NC(=O)[C@H](Cc1ccccc1)NC(=O)[C@H](CC(=O)O)NC(=O)[C@@H]1CCCCNC(=O)CC[C@H](NC(=O)[C@H](CC(=O)O)NC(=O)[C@H](CC(C)C)NC(=O)[C@H](Cc2ccc(O)cc2)NC(=O)[C@H](CCCCN)NC(=O)[C@H](CO)NC(=O)[C@H](Cc2ccc(O)cc2)NC(=O)[C@H](CC(=O)O)NC(=O)[C@H](CO)NC(=O)[C@@H](NC(=O)[C@@H](O)Cc2ccccc2)[C@@H](C)O)C(=O)N[C@@H](CCCNC(=N)N)C(=O)N[C@@H](CCCNC(=N)N)C(=O)N[C@@H](C)C(=O)N1)C(C)C)C(=O)N[C@@H](CC(=O)O)C(=O)N[C@H](C(=O)NCC(=O)N1CCC[C@H]1C(=O)N[C@@H](CO)C(=O)N[C@@H](CO)C(=O)NCC(=O)N[C@@H](C)C(=O)N1CCC[C@H]1C(=O)N1CCC[C@H]1C(=O)N1CCC[C@H]1C(=O)N[C@@H](CO)C(=O)N[C@@H](CCCCNC(=O)CCSCC(=O)NCCOCCOCCOCCOCCOCCOCCOCCOCCOCCOCCOCCOCCC(=O)O[C@H]1CC[C@@]2(C)C(=CC[C@H]3[C@@H]4CC[C@H]([C@H](C)CCCC(C)C)[C@@]4(C)CC[C@@H]32)C1)C(N)=O)[C@@H](C)O [K40-chol G(6-40), [PLA6, E16K20(lactam), D28, K40(COCH2CH2S-Chol)]G(6-40) amide] (H-[PhLac]TSDYSKYLDERRAKDFVQWLMDTGPSSGAPPPSK(X1)-NH2; lactam 11-15)
- EC50 (GLP-1 Receptor; GLP-1 agonism EC50 (nM), Table 23, standard deviation in ( )): 47 nM
- IC50 (Glucagon Receptor; Glucagon antagonism IC50 (nM, inhibit 0.4 nM glucagon), Table 23, standard deviation in ( )): 312 nM

Structure (SMILES): CSCC[C@H](NC(=O)[C@H](CC(C)C)NC(=O)[C@H](Cc1c[nH]c2ccccc12)NC(=O)[C@H](CCC(N)=O)NC(=O)[C@@H](NC(=O)[C@H](Cc1ccccc1)NC(=O)[C@H](CC(=O)O)NC(=O)[C@@H]1CCCCNC(=O)CC[C@H](NC(=O)[C@H](CC(=O)O)NC(=O)[C@H](CC(C)C)NC(=O)[C@H](Cc2ccc(O)cc2)NC(=O)[C@H](CCCCN)NC(=O)[C@H](CO)NC(=O)[C@H](Cc2ccc(O)cc2)NC(=O)[C@H](CCC(=O)O)NC(=O)[C@H](CO)NC(=O)[C@@H](NC(=O)[C@H](Cc2ccccc2)NC(=O)[C@@H](NC(=O)CNC(=O)[C@H](CCC(=O)O)NC(=O)[C@H](C)NC(=O)[C@@H](N)Cc2c[nH]cn2)[C@@H](C)O)[C@@H](C)O)C(=O)N[C@@H](CCCNC(=N)N)C(=O)N[C@@H](CCCNC(=N)N)C(=O)N[C@@H](C)C(=O)N1)C(C)C)C(=O)N[C@@H](CC(=O)O)C(=O)N[C@H](C(N)=O)[C@@H](C)O [[A2E3, E16K20(Lactam), D28]G(1 ~ 29)]
- EC50 (GLP-1 Receptor; GLP-1 agonism EC50 (nM), Table 18): 0.11 nM
- IC50 (Glucagon Receptor; Glucagon antagonism IC50 (nM, inhibit 0.2-0.8 nM glucagon), Table 18): 129 ± 106 nM
- character of antagonism (partial antagonist, wrapped cell) (Glucagon Receptor; Table 18): partial
- character of antagonism (partial antagonist, wrapped cell) (Glucagon Receptor; Table 19): partial
- character of antagonism (partial antagonist, wrapped cell) (Glucagon Receptor; Table 20): partial

Structure (SMILES): CSCC[C@H](NC(=O)[C@H](CC(C)C)NC(=O)[C@H](Cc1c[nH]c2ccccc12)NC(=O)[C@H](CCC(N)=O)NC(=O)[C@@H](NC(=O)[C@H](Cc1ccccc1)NC(=O)[C@H](CC(=O)O)NC(=O)[C@H](CCCCN)NC(=O)[C@H](C)NC(=O)[C@H](CCCNC(=N)N)NC(=O)[C@H](CCCNC(=N)N)NC(=O)[C@H](CCC(=O)O)NC(=O)[C@H](CC(=O)O)NC(=O)[C@H](CC(C)C)NC(=O)[C@H](Cc1ccc(O)cc1)NC(=O)[C@H](CCCCN)NC(=O)[C@H](CO)NC(=O)[C@H](Cc1ccc(O)cc1)NC(=O)[C@H](CCC(=O)O)NC(=O)[C@H](CO)NC(=O)[C@@H](NC(=O)[C@@H](N)Cc1ccccc1)[C@@H](C)O)C(C)C)C(=O)N[C@@H](CC(N)=O)C(=O)N[C@H](C(=O)NCC(=O)N1CCC[C@H]1C(=O)N[C@@H](CO)C(=O)N[C@@H](CO)C(=O)NCC(=O)N[C@@H](C)C(=O)N1CCC[C@H]1C(=O)N1CCC[C@H]1C(=O)N1CCC[C@H]1C(=O)N[C@@H](CO)C(N)=O)[C@@H](C)O [[E9, E16, K20] G(6-39)]
- EC50 (GLP-1 Receptor; [3]): 1040 ± 11.9 nM
- Glucagon antagonism IC50(nM) (inhibit 0.2-0.8 nM glucagon) (Glucagon Receptor; Table 16, combined results of three assays): weak agonist

Structure (SMILES): CSCC[C@H](NC(=O)[C@H](CC(C)C)NC(=O)[C@H](Cc1c[nH]c2ccccc12)NC(=O)[C@H](CCC(N)=O)NC(=O)[C@@H](NC(=O)[C@H](Cc1ccccc1)NC(=O)[C@H](CC(=O)O)NC(=O)[C@@H]1CCCCNC(=O)CC[C@H](NC(=O)[C@H](CC(=O)O)NC(=O)[C@H](CC(C)C)NC(=O)[C@H](Cc2ccc(O)cc2)NC(=O)[C@H](CCCCN)NC(=O)[C@H](CO)NC(=O)[C@H](Cc2ccc(O)cc2)NC(=O)[C@H](CCC(=O)O)NC(=O)[C@H](CO)NC(=O)[C@@H](NC(=O)[C@H](Cc2ccccc2)NC(=O)[C@@H](NC(=O)CN)[C@@H](C)O)[C@@H](C)O)C(=O)N[C@@H](CCCNC(=N)N)C(=O)N[C@@H](CCCNC(=N)N)C(=O)N[C@@H](C)C(=O)N1)C(C)C)C(=O)N[C@@H](CC(=O)O)C(=O)N[C@H](C(N)=O)[C@@H](C)O [[E9, E16K20(lactam), D28]G(4 ~ 29)] (H-GTFTSEYSKYLDERRAKDFVQWLMDT-NH2; lactam 13-17; N-terminus assumed)
- EC50 (GLP-1 Receptor; GLP-1 agonism EC50 (nM), Table 19): 151 ± 8.8 nM
- IC50 (Glucagon Receptor; Glucagon IC50 (nM), Table 14): 10 to 30 nM
- IC50 (Glucagon Receptor; Glucagon antagonism IC50 (nM, inhibit 0.8 nM glucagon), Table 19): 12.7 ± 1.1 nM

Structure (SMILES): CC[C@H](C)[C@H](NC(=O)[C@H](Cc1ccccc1)NC(=O)[C@H](CC(=O)O)NC(=O)[C@H](CCCCN)NC(=O)[C@H](C)NC(=O)[C@H](C)NC(=O)[C@H](CCC(N)=O)NC(=O)[C@@H]1CCC(=O)NCCCC[C@H](NC(=O)[C@H](CO)NC(=O)[C@H](Cc2ccc(O)cc2)NC(=O)[C@H](CC(=O)O)NC(=O)[C@H](CO)NC(=O)[C@@H](NC(=O)C(O)Cc2ccccc2)[C@@H](C)O)C(=O)N[C@@H](Cc2ccc(O)cc2)C(=O)N[C@@H](CC(C)C)C(=O)N[C@@H](CC(=O)O)C(=O)N1)C(=O)N[C@@H](C)C(=O)N[C@@H](Cc1c[nH]c2ccccc12)C(=O)N[C@@H](CC(C)C)C(=O)N[C@@H](CCSC)C(=O)N[C@@H](CC(=O)O)C(=O)N[C@H](C(N)=O)[C@@H](C)O (some centres unmarked) [[PLA6, K12E16(lactam), GLP(23-32)]G(6-29)] (H-[ξPhLac]TSDYSKYLDEQAAKDFIAWLMDT-NH2; lactam 7-11)
- GLP-1 agonism EC50(nM) (GLP-1 Receptor; Table 18): No agonism
